US20250367283A1, “MEVALONATE PATHWAY INHIBITOR AS HIGHLY-EFFICIENT VACCINE ADJUVANT” (Tsinghua University, priority 2015, published 2025)

Key:
[1] = test system: anti-OVA IgM and IgG antibodies; test: OVA evaluation system: adjuvant activity in antibody titer in mice; format: in vivo; conditions: for adjuvant effect among bisphosphonic acid compounds / adjuvant effect vs 8 commercially available bisphosphonic acid compounds: 100 ug; for adjuvant effect among TH-Z80 series: intramuscular, OVA
Procedure: OVA evaluation system was used to determine adjuvant activity in antibody titer.
Mice of C57B/6 strain were used. The mice in the experimental group were injected with the obtained mixture of each of the statins and OVA antigen through soles injection, with 20 μl for each mouse. The mice in the control group were injected with a 1:1 mixture of PBS or DMSO (10 μl) and 10 μl OVA antigen (PBS or DMSO is 10 μl, respectively, and the antigen is 10 μl) through soles injection, with 20 μl for each mouse. On Day 7 and Day 14 after immunization, blood was taken from the mice's orbits, with 100 μl was taken from each mouse. The obtained blood was left at 4° C. overnight, and centrifuged at 6000 rpm for 8 min. The supernatant serum was removed and the titers of anti-OVA IgM and IgG antibodies in the serum were determined.
Test of the OVA antibody titer: The OVA protein was diluted to a concentration of 2 μg/ml with a carbonate solution of pH 9.6, coated in a 96-well ELISA plate at 50 μl per well, and left at 4° C. overnight. The ELISA plate was washed five times with PBS containing 0.05% Tween 20, blocked with 1% BSA solution at 200 μl per well, and incubated at room temperature for 2 h. The ELISA plate was washed five times with PBST (Phosphate Buffered Saline with Tween), a 2-fold serial dilution of the mouse serum after immunized with OVA was added at 50 μl per well and incubated at room temperature for 2 h. After the ELISA plate was washed five times with PBST, HRP (horseradish peroxidase)-labeled goat-anti-mouse IgM or IgG antibody was added and incubated at room temperature for 45 min. The ELISA plate was washed five times with PBST, and a color developing solution of sodium citrate OPD (o-phenylenediamine) was added. After 10 min of color development in the dark, sulfuric acid was added to terminate the reaction. The reading was performed with ELIASA OD490. The maximum serum dilution factor, when the ratio of light absorptions of the experimental group to the control group was >2.0, was the titer of the anti-OVA antibody in the serum.
Each test compound was formulated at a concentration of 2 mg/ml and the concentration of OVA antigen was 2 mg/ml. Each compound was mixed with OVA at 1:1. Each C57B/6 mouse in the experimental group was injected with 100 μl of the mixture (containing 50 μl of the antigen and 50 μl of the compound) by intramuscular injection at the right thigh. On Day 7 and Day 14 after immunization, blood was taken from the mice's orbit, and 100 μl was taken for each mouse. The obtained blood was allowed to stand at 4° C. overnight, and centrifuged at 6000 rpm for 8 min. The supernatant serum was removed, and the titers of anti-OVA IgM and IgG antibodies in the serum were determined.
Method: each of the test compounds (the 10 bisphosphonates as described above) was mixed with the OVE antigen at 1:1, and the concentrations of bisphosphonic acid and OVA were both 10 mg/ml. Mice of C57B/6 strain were used. The mice in the experimental group were injected with the mixture of each of the test compounds and OVA antigen through soles injection, with 20 μl for each mouse, and wherein the amounts of OVA antigen and each of the test compounds were both 100 ug. The mice in the control group were injected with a 1:1 mixture of […] and 10 μl OVA antigen through sole injection. On Day 7 and Day 14 after immunization, blood was taken from the mice's orbits, and 100 μl was taken from each mouse.
The obtained blood was left at 4° C. overnight, and centrifuged at 6000 rpm for 8 min. The supernatant serum was removed, and the titers of anti-OVA IgM and IgG antibodies in the serum were determined.
Method: TH-Z144 and TH-Z145 were prepared at the concentration of 10 mg/ml, the concentration of OVA antigen was also 10 mg/ml, and the compound and the antigen were mixed at 1:1. Mice of C57B/6 strain were used.

PR8 influenza virus = PR8 influenza virus challenge after HA1 immunization; format: in vivo, mice; conditions: 20 micrograms adjuvant with 5 micrograms HA1, intramuscular
Procedure: Method: 5 micrograms of hemagglutinin protein (HA1) in the PR8 influenza virus was added to phosphate buffer, 20 micrograms of simvastatin, 20 micrograms of TH-Z80, 20 micrograms of TH-Z93 and 20 micrograms of TH-Z145, respectively. And mice were injected intramuscularly for immunization on day 0, day 14 and day 21. Nasal mucosa of mice was inoculated with PR8 virus on day 28. And then the weight of the mice was weighed daily and the death of the mice was observed.

[2] = test system: Plasmodium falciparum 3D7; test: Test of plasmodium activity (SYBR-GREEN1); format: cell-based; conditions: infected erythrocytes, 72 hours; read-out: Malaria (IC50/μM)
Procedure: Plasmodium falciparum 3D7 was cultured with […] medium mixed with 10% human O-type blood serum and 25 mM HEPES. The cultivation process was maintained in a carbon dioxide incubator under 5% carbon dioxide. In vitro drug testing experiments were performed on a 96-well plate. The test drug was dissolved in PBS and pre-diluted with complete medium. Infected erythrocytes were cultured in triplicate for 72 hours in 3-fold serial dilutions of drug. Then an equal amount of SYBR-GREEN1 was added to each well. The detection was then performed at 485 nm for excitation light and 538 nm for emitted light. […] ORIGIN 8.0 software was used to plot and fit.

[3] = test system: PvGGPPS (geranylgeranyl pyrophosphate synthase from Plasmodium); test: In vitro PvGGPPS enzymatic activity assay; format: biochemical; conditions: GPP and IPP substrates
Procedure: PvGGPPs with 6 consecutive His at the N-terminus was induced to express in vitro, collected, and purified by Ni column. In vitro PvGGPPs enzymatic activity assay was performed in a 96-well plate at 200 μl of solution per well. The buffer of the system was 25 mM HEPES, 2.5 mM MgCl2, pH 7.4. Using GPP and IPP as reaction substrates, a 360 nm continuous spectrophotometric detection was performed in a phosphate lyase system. ORIGIN 8.0 software was used to plot and fit.

[4] = bisphosphonic acids 100 ug with OVA, soles injection, Day 7 and Day 14

Compound	adjuvant effect among TH-Z80 series [1]	body weight and death after PR8 virus inoculation (PR8 influenza virus)	IC50 [2] [µM]	IC50 [3] [µM]	other results
CCCCCCOc1ccc2c(c1)ncn2CC(O)(P(=O)(O)O)P(=O)(O)O [TH-Z80]	most significant adjuvant effects	did not lose weight nor died	1.76	0.37	adjuvant effect among bisphosphonic acid compounds ([1]; soles injection): most significant adjuvant effects; adjuvant effect vs 8 commercially available bisphosphonic acid compounds ([1]; soles injection): much higher than any of the 8 commercially available bisphosphonic acid compounds; IgM and IgG antibody titers vs PBS control [1, 4]: more than five times higher; antibody titers vs PBS control at different immunization sites ([1]; soles, subcutaneous, muscle, abdominal and nasal mucosa): significantly increased
CCCCCCCCOc1ccc2c(c1)ncn2CC(O)(P(=O)(O)O)P(=O)(O)O [TH-Z81]	most significant adjuvant effects		1.95	2.07	
CCCCCCOc1ccnc(NC(P(=O)(O)O)P(=O)(O)O)c1 [TH-Z93, (((4-(hexyloxy)pyridin-2-yl)amino)methylene)bisphosphonic acid]		did not lose weight nor died			adjuvant effect among bisphosphonic acid compounds ([1]; soles injection): most significant adjuvant effects; adjuvant effect vs 8 commercially available bisphosphonic acid compounds ([1]; soles injection): much higher than any of the 8 commercially available bisphosphonic acid compounds; IgM and IgG antibody titers vs PBS control [1, 4]: more than five times higher
CCCCCCCOc1ccc2c(c1)ncn2CC(O)(P(=O)(O)O)P(=O)(O)O [TH-Z152]	most significant adjuvant effects		1.21	0.95	
CCCCCCCCCOc1ccc2c(c1)ncn2CC(O)(P(=O)(O)O)P(=O)(O)O [TH-Z153]	most significant adjuvant effects		1.28	1.09	
CCC(C)(C)C(=O)O[C@H]1C[C@@H](C)C=C2C=C[C@H](C)[C@H](CC[C@@H]3C[C@@H](O)CC(=O)O3)[C@H]21 [simvastatin, reference compound]		did not lose weight nor died			adjuvant effect among statin drugs ([1]; statins with OVA, soles injection): most significant adjuvant effects; IgM and IgG antibody titers vs PBS or DMSO control ([1]; statins with OVA, soles injection, Day 7 and Day 14): significantly higher titers
(2-(3-(octyloxy)phenyl)ethane-1,1-diyl)bisphosphonic acid [TH-Z145]		did not lose weight nor died			IgM and IgG antibody titers vs PBS control ([1]; GGPPS inhibitors 100 μg with OVA, right sole, Day 7 and Day 14): significantly higher titers
